Assay results taken from patent publication US20030186939A1, “Omega-cycloalkyl-prostaglandin E2 derivatives” (priority 1997, published 2003).

Experiments:
Details in all cases: competition of 2.5 nM 3H-PGE2 binding, CHO cell membrane fraction; more polar compounds
mouse EP3α = target: T1, mouse EP3α (Mus musculus, UniProt P30557); assay: Binding assay using expression cell of prostanoide receptor subtype (EP3α)
T1 construct: expressed in transfected cells; host or cells: CHO cells (membrane fraction)
T1 sequence (P30557 1-365): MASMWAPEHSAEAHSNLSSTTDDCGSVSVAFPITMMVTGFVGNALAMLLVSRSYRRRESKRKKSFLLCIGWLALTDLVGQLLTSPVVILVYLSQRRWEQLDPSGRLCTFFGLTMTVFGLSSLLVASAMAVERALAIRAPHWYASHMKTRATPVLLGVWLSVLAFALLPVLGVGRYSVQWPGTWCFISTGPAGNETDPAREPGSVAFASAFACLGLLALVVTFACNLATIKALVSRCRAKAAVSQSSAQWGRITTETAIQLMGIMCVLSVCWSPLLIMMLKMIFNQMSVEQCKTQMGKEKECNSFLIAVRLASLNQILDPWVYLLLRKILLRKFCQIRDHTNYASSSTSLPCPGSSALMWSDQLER
Experimental: (§1) The preparation of membrane fraction was carried out according to the method of Sugimoto et. al. [J. Biol. Chem. 267, 6463-6466 (1992)], using expression CHO cell of the prostanoide receptor subtype (mouse EP1, EP2, EP3α, EP4).
(§2) The standard assay mixture contained membrane fraction (0.5 mg/ml), and [^3H]-PGE2 in a final volume of 200 μl was incubated for 1 hour at room temperature. The reaction was terminated by the addition of 3 ml of ice-cold buffer. The mixture was rapidly filtered through a GF/B glass filter. The radioactivity associated with the filter was measured by liquid scintillation counting.
(§3) Kd and Bmax values were determined from Scatchard plots [Ann. N.Y. Acad. Sci., 51, 660 (1949)]. Non-specific binding was calculated as the bound in the presence of an excess (2.5 μM) of unlabeled PGE2. In the experiment for competition of specific ^3H-PGE2 binding by the compounds of the present invention, 2.5 nM of ^3H-PGE2 and various concentrations of compounds of the present invention were added. The following buffer was used in all reactions.
(§4) Buffer: 10 mM potassium phosphate (pH 6.0), 1 mM EDTA, 10 mM MgCl2, 0.1 M NaCl
(§5) In the example compounds, all of values were shown the more polar compounds.
(§6) The dissociation constant (Ki) of each compound was calculated by the following equation.

mouse EP2 = target: T2, mouse EP2 (Mus musculus, UniProt Q62053); assay: Binding assay using expression cell of prostanoide receptor subtype (EP2)
T2 construct: expressed in transfected cells; host or cells: CHO cells (membrane fraction)
T2 sequence (Q62053 whole entry): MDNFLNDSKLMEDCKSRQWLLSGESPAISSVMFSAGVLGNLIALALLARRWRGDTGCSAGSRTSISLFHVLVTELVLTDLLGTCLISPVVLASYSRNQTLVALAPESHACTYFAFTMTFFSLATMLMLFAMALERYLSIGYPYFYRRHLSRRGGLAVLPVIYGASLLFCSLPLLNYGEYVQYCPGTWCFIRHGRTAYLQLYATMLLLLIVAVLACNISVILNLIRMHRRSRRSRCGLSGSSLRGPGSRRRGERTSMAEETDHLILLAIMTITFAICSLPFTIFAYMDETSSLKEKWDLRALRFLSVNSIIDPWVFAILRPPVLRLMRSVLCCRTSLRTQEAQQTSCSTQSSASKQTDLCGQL
Experimental: as §2
(§7) Kd and Bmax values were determined from Scatchard plots [Ann. […] The following buffer was used in all reactions.
as §4, §6

mouse EP4 = target: T3, mouse EP4 (Mus musculus, UniProt P32240); assay: Binding assay using expression cell of prostanoide receptor subtype (EP4)
T3 construct: expressed in transfected cells; host or cells: CHO cells (membrane fraction)
T3 sequence (P32240 whole entry): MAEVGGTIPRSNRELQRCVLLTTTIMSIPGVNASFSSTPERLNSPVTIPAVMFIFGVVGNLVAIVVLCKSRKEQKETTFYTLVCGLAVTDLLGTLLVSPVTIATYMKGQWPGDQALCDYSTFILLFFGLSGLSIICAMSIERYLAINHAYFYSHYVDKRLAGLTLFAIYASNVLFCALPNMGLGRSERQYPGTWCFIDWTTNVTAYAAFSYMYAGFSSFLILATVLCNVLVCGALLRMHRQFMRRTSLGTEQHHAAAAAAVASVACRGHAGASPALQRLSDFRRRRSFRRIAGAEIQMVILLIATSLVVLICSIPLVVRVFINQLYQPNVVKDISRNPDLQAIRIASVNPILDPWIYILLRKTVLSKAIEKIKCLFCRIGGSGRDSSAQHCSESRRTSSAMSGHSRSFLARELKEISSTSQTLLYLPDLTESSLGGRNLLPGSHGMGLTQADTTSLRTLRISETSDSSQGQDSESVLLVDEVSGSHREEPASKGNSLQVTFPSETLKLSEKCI
Experimental: as §2, §7, §4, §6

mouse EP1 = target: T4, mouse EP1 (Mus musculus, UniProt P35375); assay: Binding assay using expression cell of prostanoide receptor subtype (EP1)
T4 construct: expressed in transfected cells; host or cells: CHO cells (membrane fraction)
T4 sequence (P35375 1-405): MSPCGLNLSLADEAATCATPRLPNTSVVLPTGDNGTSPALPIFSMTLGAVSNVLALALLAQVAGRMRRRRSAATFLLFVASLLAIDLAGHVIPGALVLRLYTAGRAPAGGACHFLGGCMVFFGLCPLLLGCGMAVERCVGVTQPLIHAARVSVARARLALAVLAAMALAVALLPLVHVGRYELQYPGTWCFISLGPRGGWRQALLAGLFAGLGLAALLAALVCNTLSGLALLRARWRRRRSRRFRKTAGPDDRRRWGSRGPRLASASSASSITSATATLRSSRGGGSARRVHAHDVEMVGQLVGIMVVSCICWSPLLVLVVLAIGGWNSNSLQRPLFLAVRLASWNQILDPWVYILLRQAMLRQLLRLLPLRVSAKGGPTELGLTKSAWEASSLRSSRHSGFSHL
Experimental: as §1, §2, §3, §4, §5, §6

| Ki (mouse EP3α) | Ki (mouse EP2) | Ki (mouse EP4) | Ki (mouse EP1) | SMILES |
| --- | --- | --- | --- | --- |
| > 10 µM | 0.032 µM | > 10 µM | > 10 µM | C=CCC1(C(O)C/C=C/[C@H]2[C@H](O)CC(=O)[C@@H]2C/C=C\CCCC(=O)O)CCC1 (stereo partly drawn) [Example 4(5), (5Z, 11α, 13E)-11,16-dihydroxy-9-oxo-17,17-propanoprosta-5, 13-19-trienoic acid] |
| > 10 µM | 0.03 µM | > 10 µM | > 10 µM | CCC1(C(O)C/C=C/[C@H]2[C@H](O)CC(=O)[C@@H]2C/C=C\CCCC(=O)O)CCC1 (stereo partly drawn) [Example 4(10), (5Z, 11α, 13E)-11,16-dihydroxy-9-oxo-17,17-propano-20-norprosta-5,13-dienoic acid] |
| > 10 µM | 0.036 µM | > 10 µM | > 10 µM | C=CCCC1(C(O)C/C=C/[C@H]2[C@H](O)CC(=O)[C@@H]2C/C=C\CCCC(=O)O)CCC1 (stereo partly drawn) [Example 6(1), (5Z, 11α, 13E)-17,17-propano-20,20-methylene-11,16-dihydroxy-9-oxoprosta-5,13-dienoic acid] |
| > 10 µM | 0.076 µM | > 10 µM | > 10 µM | C=CC1(C(O)C/C=C/[C@H]2[C@H](O)CC(=O)[C@@H]2C/C=C\CCCC(=O)O)CCC1 (stereo partly drawn) [Example 6(5), (5Z, 11α, 13E)-17,17-propano-11,16-dihydroxy-9-oxo-20-norprosta-5,13,18-trienoic acid] |
| > 10 µM | 0.096 µM | > 10 µM | > 10 µM | C=CCC1(C(O)C/C=C/[C@@H]2[C@@H](C/C=C\CCCC(=O)OC)[C@H](Cl)C[C@H]2O)CCC1 (stereo partly drawn) [Example 16(1), (5Z, 9β, 11α, 13E)-17, 17-propano-11, 16-dihydroxy-9-chloroprosta-5, 13, 19-trienoic acid•methylester] |
| 2.7 µM | 0.0009 µM | 0.4 µM | 1.1 µM | O=C(O)CCC/C=C\C[C@@H]1[C@@H](/C=C/CC(O)C2(CC3CC3)CCC2)[C@H](O)C[C@H]1Cl (stereo partly drawn) [Example 17(2), (5Z, 9β, 11α, 13E)-17, 17-propano-19, 20-methano-11, 16-dihydroxy-9-chloroprosta-5, 13-dienoic acid] |
| > 10 µM | 0.092 µM | > 10 µM | > 10 µM | CCCC1(C(O)C/C=C/[C@H]2[C@H](O)CC(=O)[C@@H]2C/C=C\CCCC(=O)O)CCC1 (stereo partly drawn) [compound 4] |
| > 10 µM | 0.034 µM | > 10 µM | > 10 µM | CCCC1(C(O)C/C=C/[C@H]2[C@H](OC)CC(=O)[C@@H]2C/C=C\CCCC(=O)O)CCC1 (stereo partly drawn) [compound 10] |
| > 10 µM | 0.37 µM | > 10 µM | > 10 µM | C=C1C[C@@H](O)[C@H](/C=C/CC(O)C2(CCC)CCC2)[C@H]1C/C=C\CCCC(=O)O (stereo partly drawn) [compound 12] |
